For data set [1] the following is noted: transdermal delivery device, clinical PK data fitted to two-compartmental model with lag compartment. The text has this:
To obtain the graphs shown in FIGS. 5-7, the plasma concentration-time profile of nicotine administered transdermally was simulated by means of a two compartmental model, as shown in FIG. 4. In addition to the two compartments (Central and peripheral), the lag compartment was included to take absorption lag into account associated with transdermal delivery.

A further data set is described as follows: clinical. How it is done:
The graph is based on the oral nicotine administration protocol administering a 6 mg nicotine tablet every 6 hours, as described in International Patent Publication No. WO 2013/006643, the entirety of which is incorporated by reference herein.
To obtain the graph shown in FIG. 2, the plasma concentration-time profile of oral nicotine was simulated using the pharmacokinetic equation (equation 1) for multiple-dose oral administration: […]
where F is oral bioavailability. D is oral dose, ka is absorption rate constant. Vd is volume of distribution, ke is elimination rate constant, s is dose interval, n is the number of dose, and C is the plasma concentration at any time ‘t’.
The pharmacokinetic parameters F, D, and T were obtained from Hukkanen, J. et al. Pharmacol Rev. 2005 March; 57(1):79-115 and U.S. Patent Publication No. 20130017259A1. Further, the pharmacokinetic parameter absorption rate constant (ka) shown in the above table was obtained by fitting the orally administered nicotine PK data (obtained from Benowitz, N. L. et al. Clin Pharmacol Ther. 1991 March; 49(3):270-7) to a two-compartmental pharmacokinetic model (shown in FIG. 4). Pharmacokinetic parameters Vd (volume of distribution) and ke (elimination rate constant) were obtained by fitting intravenously administered nicotine PK data (obtained from Benowitz, N. L. et al. Clin Pharmacol Ther. 1991 March; 49(3):270-7) to the two-compartmental model shown in FIG. 4 without the absorption component and lag component.

For data set [2] the following is noted: oral nicotine, human; from Hukkanen et al. and US 20130017259A1; cited from earlier work.
The conditions of data set [3]: amnestic MCI subjects, six months, cited from earlier work.

Results on 1 compound are retold here after patent US20200368175A1, “METHODS AND DEVICES FOR TREATING LEVODOPA INDUCED DYSKINESIA” (CHRONO THERAPEUTICS INC., priority 2017, published 2020).

Read-outs that look alike come from different tables or passages of the source.

The Vd is the apparent volume that relates the amount in the body to the concentration in plasma or blood. A high value points to wide distribution into tissue.

As to `CN1CCCC1c1cccnc1` (stereo not drawn) [nicotine], in data set [1], the “Vd (volume of distribution), average value” turned out to be 59 L. The entries for the “ka (absorption rate constant), average value” (in data set [1]; in “clinical” (oral nicotine PK data of Benowitz et al. fitted to two-compartmental model)) were 0.29 h⁻¹ and 2.5 h⁻¹, respectively. Moreover, the “ke (elimination rate constant), average value” in data set [1] turned out to be 2.15 h⁻¹; in the data set “clinical” (intravenous nicotine PK data of Benowitz et al. fitted to two-compartmental model without absorption and lag components), 0.9 h⁻¹. The volume of distribution (Vd) in “clinical” (human, plasma, iv) came out at 76 L. In data set [2], the “F (oral bioavailability), average value” is on record as 0.32. Further, the “effect on attention, memory and psychomotor speed” value in data set [3] (15 mg per day transdermal nicotine vs placebo) was “significant nicotine-associated improvements in attention, memory, and psychomotor speed”. The safety and tolerability entry in data set [3] (15 mg per day transdermal nicotine) is “excellent safety and tolerability”.
